Patent US20120213837A1, “COMPOSITIONS AND METHODS FOR BIOACTIVE COATINGS TO IMPROVE ALLOGRAFT INCORPORATION” (priority 2009, published 2012)
“Also recorded” adds a separate entry of the source. Blank lines part the entries; values can stand above or below the compound they belong to.

Legend:
[1] = tested on: smooth muscle proliferation and migration; details: daily injections; cited from earlier work
[2] = tested on: host-bone-allograft integrated structure (excised tibias); test: Post-operative mechanical properties, compression in Instron 4511; format: in vivo, Sprague Dawley rats; details: 6 weeks post-op, compression 1 mm/min, vs U and C groups
Method: All animal surgeries were performed according to an approved protocol from the UVA Animal Care and Use Committee. Briefly, adult male Sprague Dawley rats (˜400 g) were randomly assigned to three different experimental groups: uncoated allograft (U), coated 1:12 PLAGA (C), and coated 1:12 PLAGA loaded with 1:200 FTY720 (C/L). Animals were anesthetized with isoflurane gas. Following anesthetization, the dorsal skin was sterilized with betadine and 70% ethanol. A small incision was made longitudinally over the midshaft of the tibia. Subperiosteal dissection was performed once the subcutaneous tissue was dissected over the anterior aspect of the tibia. A Dremel rotary tool with a Diamond Wheel accessory was used to make an 8 mm defect slightly distal to the tibial tubercle and the 8 mm allograft segment was inserted into the defect. A stab incision was made just medial to the patellar tendon and a 19.5 gauge needle was inserted into the intramedullary canal, through the allograft, into the distal intramedullary canal to resistance, and tamped flush to the bone. […]
A leading cause of allograft failure or post-operative complications includes mechanical instability at the bone-allograft interface. […] To determine the elastic modulus, the slope was calculated between the values of 0.07 to 0.08 strain, since this was the interval in which the elastic region existed in all the graphs.

[3] = tested on: SMA-positive lumens (mural cell recruitment); test: Smooth muscle alpha-actin (SMA) immunostaining of tibial defect sections; format: in vivo, Sprague Dawley rats; details: 6 weeks, interface/allograft regions, vs U and C groups
Method: (§1) All animal surgeries were performed according to an approved protocol from the UVA Animal Care and Use Committee. Briefly, adult male Sprague Dawley rats (˜400 g) were randomly assigned to three different experimental groups: uncoated allograft (U), coated 1:12 PLAGA (C), and coated 1:12 PLAGA loaded with 1:200 FTY720 (C/L). Animals were anesthetized with isoflurane gas. Following anesthetization, the dorsal skin was sterilized with betadine and 70% ethanol. A small incision was made longitudinally over the midshaft of the tibia. Subperiosteal dissection was performed once the subcutaneous tissue was dissected over the anterior aspect of the tibia. […]
(§2) For CD45 staining to visualize leukocyte recruitment, four 7 μm-thick histological sections per sample (cryo-embedded) were blocked 3×10 minutes in PBS/saponin/BSA and immunolabeled with CD45 (BD Pharmingen) diluted 1:50 in PBS/saponin/BSA. […] To quantify changes in vascular remodeling (particularly recruitment of mural cells) in response to FTY720, SMA-positive cells that formed an obvious lumen were quantified in each tissue section. Total tissue area was measured in ImageJ, and the FTY720-mediated response was represented as a fraction of SMA-positive lumens per total tissue area.

CD45+ leukocytes = test: CD45 immunostaining of tibial defect sections; format: in vivo, Sprague Dawley rats; details: 6 weeks, qualitative images
Method: as §1, §2

[4] = tested on: allograft-host bone interface; test: H&E and Masson's trichrome staining of tibial defects; format: in vivo, Sprague Dawley rats; details: 6 weeks healing, vs U and C groups
Method: as §1
as §2, with “area. […]” for “area.”

[5] = in vivo; cited from earlier work
arterioles = details: sustained release from 50:50 PLAGA films, 1:200 wt/wt; cited from earlier work
[6] = tested on: critical size calvarial bone defects; details: 3D PLAGA scaffolds delivering FTY720; cited from earlier work
[7] = In vitro release of 33P-labelled S1P from PLAGA-coated allografts; encapsulation efficiency; format: physicochemical
Method: Allograft samples were coated similarly to the above protocol with radio-labeled sphingosine-1-phosphate (S1P, Cayman Chemical, Ann Arbor Mich.) to measure drug release over a 14-day period. Specifically, 2.92 mg of S1P was resolubilized in MeCl to a final concentration of 2 mg/mL by frequent heating and vortexing. Using a conversion factor of 2.2×10^6 cpm/μCi and 1 μCi/μL, 6.8 μL of Phosphorus-33 (^33P) (Perkin Elmer, Inc., Waltham, Mass.) was added to the S1P solution. Next, 583 mg of 50:50 PLAGA was added to the S1P-^33P solution to achieve a 1:12 (wt./vol.) polymer-solvent ratio. The final solution had 2.92 mg of S1P, 6.8 μL of ^33P, and 583 mg of 50:50 PLAGA mixed in 7 mL of MeCl. The coated allografts were then placed into a glass scintillation vial containing 50 μL of simulated body fluid (SBF) with 4% fatty acid free (FAF) BSA. Following 24 hours incubation, the allografts were removed from the vials and the remaining 4% FAF-BSA SBF was mixed with 5 mL of EcoScintA biodegradable scintillation solution for quantifying drug release using the Beckman Coulter liquid scintillation counter. Allografts were then placed into a new glass vial containing fresh 4% FAF-BSA SBF. This cycle was repeated for a 14-day period to achieve cumulative measurements. Encapsulation efficiency (maximum amount of S1P that can be released) was quantified by placing allografts in MeCl to completely dissolve the drug-containing polymer solution.
To determine total amount of drug loaded into allograft implants and the kinetics of drug release, in vitro experiments were conducted utilizing allografts loaded with S1P-^33P (FIG. 3). Complete degradation of PLAGA occurs between 6-8 weeks. However, substantial S1P release was expected to occur earlier, given the bulk degradation profile of PLAGA. We found approximately 0.64 mg of the original 1 mg of S1P was actually loaded within the polymer-coated allograft (64% loading efficiency). After 14 days incubation, 0.57 mg of S1P was detected in the simulated body fluid (SBF). […]

[8] = in the absence of a carrier protein; cited from earlier work

SMILES: CCCCCCCCc1cccc(NC(=O)[C@H](N)CCP(=O)(O)O)c1 [VPC44116]
smooth muscle proliferation and migration [1]: significantly decreased

SMILES: CCCCCCCCc1ccc(CCC(N)(CO)CO)cc1 [FTY720, Fingolimod]
elastic modulus [2]: statistically significant increases
ultimate compressive strength [2]: statistically significant increases
number of blood vessels stained with smooth muscle alpha-actin [3]: significantly increased; also recorded: enhanced the number of smooth-muscle-invested vessels
number of CD45+ leukocytes within allograft-host bone interface (CD45+ leukocytes): reductions in the number of leukocytes; also recorded: significant reduction
allograft-host bone integration, histology [4]: superior collagen alignment, osseous tissue generation along the outer edge of the allograft tissue, better preservation of inner cancellous porous regions, and preservation of allograft-tibial alignment
half-life [5]: approximately 7 days
microvascular remodeling (arterioles) (arterioles): promotes formation of new arterioles and structural enlargement of existing arterioles
osseous tissue ingrowth and proportion of mature smooth muscle cell-invested microvessels [6]: significantly increases

loading efficiency ([7]; 50:50 PLAGA 1:12 coated allograft): 64%
amount of S1P loaded within the polymer-coated allograft ([7]; of the original 1 mg of S1P, 50:50 PLAGA 1:12 coating): approximately 0.64 mg
SMILES: CCCCCCCCCCCCC/C=C/[C@@H](O)[C@@H](N)COP(=O)(O)O [S1P, sphingosine-1-phosphate]
release profile ([7]; 50:50 PLAGA coated allograft, SBF): initial burst release of drug was observed during the first five days
half-life in blood [5]: less than 1 hour
solubility in aqueous solutions [8]: insoluble
